Data from BindingDB's records for patent US10646492 (Incyte Corporation; Incyte Holdings Corporation, 2020).

Target: T1, Phosphatidylinositol 4,5-bisphosphate 3-kinase catalytic subunit delta isoform (Homo sapiens, UniProt O00329)
T1 sequence (O00329 whole entry): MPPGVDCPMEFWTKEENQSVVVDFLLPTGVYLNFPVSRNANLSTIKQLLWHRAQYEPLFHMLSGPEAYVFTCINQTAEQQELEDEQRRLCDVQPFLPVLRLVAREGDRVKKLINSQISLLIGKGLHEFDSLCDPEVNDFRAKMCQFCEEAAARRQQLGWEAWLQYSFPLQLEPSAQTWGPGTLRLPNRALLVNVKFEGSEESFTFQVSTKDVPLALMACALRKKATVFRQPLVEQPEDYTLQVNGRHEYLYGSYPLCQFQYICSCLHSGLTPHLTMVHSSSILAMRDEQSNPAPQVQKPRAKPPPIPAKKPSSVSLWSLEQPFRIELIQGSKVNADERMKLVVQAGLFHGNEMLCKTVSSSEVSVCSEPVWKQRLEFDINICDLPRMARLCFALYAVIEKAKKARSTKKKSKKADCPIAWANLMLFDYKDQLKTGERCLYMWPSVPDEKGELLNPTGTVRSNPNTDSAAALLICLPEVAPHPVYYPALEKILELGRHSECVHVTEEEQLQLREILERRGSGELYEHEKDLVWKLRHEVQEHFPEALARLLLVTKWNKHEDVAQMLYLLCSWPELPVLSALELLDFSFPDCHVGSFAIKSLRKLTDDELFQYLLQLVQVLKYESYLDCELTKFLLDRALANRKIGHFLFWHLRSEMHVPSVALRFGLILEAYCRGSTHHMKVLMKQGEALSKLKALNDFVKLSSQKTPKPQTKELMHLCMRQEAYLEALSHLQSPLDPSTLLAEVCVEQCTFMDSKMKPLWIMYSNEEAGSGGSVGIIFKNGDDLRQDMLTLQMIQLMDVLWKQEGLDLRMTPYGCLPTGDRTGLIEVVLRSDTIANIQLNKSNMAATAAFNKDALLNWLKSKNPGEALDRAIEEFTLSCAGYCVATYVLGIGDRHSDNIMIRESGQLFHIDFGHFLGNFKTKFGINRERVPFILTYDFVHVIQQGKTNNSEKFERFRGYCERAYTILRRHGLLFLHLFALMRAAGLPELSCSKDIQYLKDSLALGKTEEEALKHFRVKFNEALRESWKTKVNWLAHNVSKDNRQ
Assay: Scintillation Proximity Assay
Experimental: The kinase reaction was conducted in polystyrene 384-well matrix white plate from Thermo Fisher Scientific in a final volume of 25 uL. Inhibitors were first diluted serially in DMSO and added to the plate wells before the addition of other reaction components. The final concentration of DMSO in the assay was 0.5%. The PI3K assays were carried out at room temperature in 20 mM MOPS, pH 6.7, 10 mM MgCl2, 5 mM DTT and CHAPS 0.03%. Reactions were initiated by the addition of ATP, the final reaction mixture consisted of 20 uM PIP2, 20 uM ATP, 0.2 uCi [gamma-33P]ATP, 4 nM PI3Kdelta. […] 25 mM EDTA, 400 uM ATP. The final concentration of SPA beads was 1.0 mg/mL. After the plate sealing, plates were shaken overnight at room temperature and centrifuged at 1800 rpm for 10 minutes, the radioactivity of the product was determined by scintillation counting on Topcount (PerkinElmer).

| IC50 [nM] | SMILES |
| --- | --- |
| < 10 | CCOc1c(C(C)n2cc(C)c3c(N)ncnc32)cc(Cl)c(C#N)c1C1CN([C@@H](C)CO)C1 (stereo partly drawn) [US10646492, Example 309] |
| < 10 | COc1c([C@H](C)n2cc(C)c3c(N)ncnc32)cc(Cl)c(C#N)c1C1CN([C@@H](C)CO)C1 [US10646492, Example 362] |

| SMILES | IC50 [nM] |
| --- | --- |
| COc1c(C(C)n2nc(C)c3c(N)ncnc32)cc(Cl)c(C)c1-c1ccnc(C(=O)C(C)C)c1 (stereo not drawn) [US10646492, Example 16] | < 10 |
